Each structure is given as a SMILES string. Entries after “also recorded” stand apart in the source; their conditions may differ. Read-outs that look alike come from different tables or passages of the source.

The target of assay [1] is T1, natural suppressor cells (Mus musculus, UniProt P97292).
T1 construct: cAMP accumulation
Nature of the assay: Blocking histamine effects in natural suppressor cells (H2 antagonism). The class given is cell-based, mouse (BALB/c). To be noted: for Blockade of histamine mediated accumulation of cAMP: NS cells. The protocol:
This assay was carried out in the same fashion as already described for the derivatives except that ED-90 concentration of the test compound was chosen. Cimetidine was added at the same time in concentrations ranging from 10^-4 to 10^-8 M. Alternatively, 10^-6 M cimetidine was added to 10^-3 -10^-8 M concentration of agonists.

The subject of assay [2] is natural suppressor cells. Nature of the assay: Mixed leukocyte reaction (MLR) suppressor assay. In kind it is cell-based, mouse (BALB/c, C57 BL/6). The protocol: Responder (BALB/c) and stimulator (C57 BL/6) spleen cells (5×10^5each) were incubated with graded numbers of NS cells in 0.3 ml/well in 96-well flat bottomed microculture plates (Costar, Data Packaging, Cambridge, MA). The culture medium was supplemented with 100 U/ml penicillin, 100 ug/ml of streptomycin (both GIBCO, Grand Island, NY), and 10=pooled human serum (VSP human serum, Biocell Laboratories, Carson CA). Co-cultured cells and stimulator cells were given 3300 rad before incubation. Cultures were maintained at 37° C. in 5% CO2 for 5 or 6 days. Eighteen hr before termination, 1 μCi of ^3 H!-thymidine (specific activity […]) (New England Nuclear, Boston, MA) was added to each culture. Cells were harvested as described above. The data were expressed as the arithmetic mean of triplicate cultures. Suppression was calculated as follows: percent suppression=1-(CPM with co-cultured cells)/(CPM without co-cultured cells)×100. […] To block the effects of agonists, […] cimetidine was used as an H2 antagonist and 10^-6 M mepyramine was used as an H1 antagonist.
CO-cultured and stimulator cells were given 3300 rad in vitro just prior to incubation. […] See, Khan et al., J. Immunol. (1985) 134:4100. […] To determine the role of H1 and H2 receptors in the modification of NS cell function, the incubation with compound 10 was carried out in the presence of either cimetidine (10^-5 M) or mepyramine (10^-6 M) for four hours at 37° C. The cells were then washed extensively and later added to co-cultures with responder and stimulator cells. […] Similar experiments were carried out with each of the indicated agonists (Table 5).

Assay [3] deals with T1, natural suppressor cells. The assay is described as follows: Effects of histamine derivatives on cAMP accumulation in natural suppressor (NS) cells. Conditions: for Relative potency: NS cells, histamine = 1.0; for Activity / potency on NS cells (in words): cAMP accumulation, H2 activity. In kind it is cell-based, mouse (BALB/c). The text has this:
NS cells were obtained and cultured as follows: four-to six-month old BALB/c mice were anesthetized with pentobarbital and all major lymphoid organs, including all major lymph nodes, the spleen, and the thymus, were irradiated as described by Slavin et al., Science (1976) 193:1252. The skull, lungs, and hind legs were shielded with lead. The mice were given 200 rad per day, 5 times per week, to a total dose of 3400 rad. Irradiation was delivered from a single 250 kV (15A) source (Philips Medical Systems, Inc., Shelton, CT). The mice were killed between 5 and 15 days after completion of the TLI. Spleens were removed aseptically and single cell suspensions were prepared by gently pressing the spleen fragments through a nylon fiber mesh (Tetko, Inc., Elmsford, NY). These spleen cells were fed daily with tissue culture medium containing RPMI 1640, 10% FCS, 2 mM glutamine, 10% CAS and 5×10^-5 M 2-mercaptoethanol and were later cloned by limiting dilutior, The clones were maintained in RPMI 1640 medium with 10% PCS and 10% CAS.
NS cells were centrifuged and resuspended at b 1×10^6 /ml in PBS and incubated at 37° C. for 10 min with 10 mM IBMX at a final concentration at 20 μM. Alternatively the cells were resuspended in 5 mM HEPES and 1 mM MgSO4 and after five minutes were disrupted in a Dounce homogenizer. Broken cells were centrifuged at 20,000 g […] for thirty minutes and supernatant was discarded. The pellet was resuspended in Tris (pH 7.5), 5 mM HEPES and 1 mM MgSO4 and incubated with IBMX.
Cold TCA (100%) was added to a final concentration of 8% and the tubes were stored in ice. Samples were extracted 3 times with 3 volumes of ether. The ether was evaporated at 40° C. in a water bath for approximately 45 min. Acetylation of both experimental samples and cAMP standards were performed by addition of 10 μl of a mixture of triethylamine and acetic anhydride (2:1). […] The radio-immunoassay was performed as reported previously by Khan et al., J. Clin. Invest. (1985) 75:1578.
(In general: Changes in cAMP serve as a functional read-out for many G protein-coupled receptors.)

Assay [4] addresses T2, guinea pig myocardial adenylate cyclase (Cavia porcellus, UniProt P47747).
T2 construct: histamine-stimulated adenylate cyclase with GPP(NH)P
Nature of the assay: Guinea pig myocardial adenylate cyclase assay. The class given is biochemical. Conditions: for Activity on guinea pig myocardium (in words): adenylate cyclase. The protocol:
Male, partly albino, guinea pigs (600 g average weight) were killed by a blow to the head. The hearts were excised and immediately immersed in ice cold oxygenated Tyrode's solution. Both ventricles were dissected free and placed in 250 mM sucrose, 5 mM Tris, 1 mM EDTA, pH 7.45. The tissue was minced with a screen, and was then homogenized with 3 consecutive 5 sec bursts of a Polytron (Brinkman Instruments, Inc., Westbury, NY) at a setting of 11. The homogenate was then centrifuged at 1085×g for 20 min. The pellet was resuspended and recentrifuged twice. The final suspension was filtered through four layers of gauze. Adenylate cyclase was assayed by the method of Salomon et al., Anal. Biochem. (1974) 58:541 as modified by Bristow et al., Mol Pharmacol. (1982) 21:671. Enzyme protein (75-250 μg) was added to a reaction mixture that consisted of 0.1 mM Mg ATP, 0.5 mM MgCl2, 10 mM phosphocreatine, 14.5 μg of creatine kinase (1381 U/mg), 100 mM
The final reaction volume before addition of α-^32 P!ATP was 225 μl. Reaction tubes were stored in cryogenic racks (Kryorack, Isolab, Inc. Akron, OH) at 0° C.
The reaction mixture was pre-warmed in a shaking water bath at 30° C. for 5 min after which 25 μl ([…]) of α-^32 P!ATP (250-500 Ci/mM) was added to label the ATP pool. The assay time was 20 min, the time needed for measurable stimulation of adenylate cyclase. The ^32 P reaction was stopped by the addition of 750 μl of 1% sodium dodecysulfate. ^32 P-labelled cyclic AMP was then isolated by the dual Dowex-alumina column method of Salomon et al., supra. α-^32 P!ATP (New England Nuclear Corporation, Boston, MA) that gave reagent blanks of 50 cpm was purified on Dowex columns as described by Salomon et al., supra.

The test system of assay [5] is natural suppressor cells. To be noted: literature, Khan et al. 1985; listed as histamine; cited from earlier work.
For another assay, the system named is lymphoid cells. Nature of the assay: Effect of beta adrenergic blockade on cAMP accumulation in lymphoid cells. The class given is cell-based. To be noted: 6×10^-6 M propranolol.

T2 sequence (P47747 whole entry): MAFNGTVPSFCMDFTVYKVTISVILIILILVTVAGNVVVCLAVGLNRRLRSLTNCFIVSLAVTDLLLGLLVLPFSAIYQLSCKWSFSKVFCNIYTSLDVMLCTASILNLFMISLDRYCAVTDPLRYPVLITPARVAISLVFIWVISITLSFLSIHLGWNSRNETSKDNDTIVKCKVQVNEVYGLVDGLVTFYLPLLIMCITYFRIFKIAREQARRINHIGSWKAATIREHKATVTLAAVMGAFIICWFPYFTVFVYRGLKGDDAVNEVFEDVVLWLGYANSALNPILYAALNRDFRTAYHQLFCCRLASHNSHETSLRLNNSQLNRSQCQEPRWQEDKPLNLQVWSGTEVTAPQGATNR
T1 sequence (P97292 whole entry): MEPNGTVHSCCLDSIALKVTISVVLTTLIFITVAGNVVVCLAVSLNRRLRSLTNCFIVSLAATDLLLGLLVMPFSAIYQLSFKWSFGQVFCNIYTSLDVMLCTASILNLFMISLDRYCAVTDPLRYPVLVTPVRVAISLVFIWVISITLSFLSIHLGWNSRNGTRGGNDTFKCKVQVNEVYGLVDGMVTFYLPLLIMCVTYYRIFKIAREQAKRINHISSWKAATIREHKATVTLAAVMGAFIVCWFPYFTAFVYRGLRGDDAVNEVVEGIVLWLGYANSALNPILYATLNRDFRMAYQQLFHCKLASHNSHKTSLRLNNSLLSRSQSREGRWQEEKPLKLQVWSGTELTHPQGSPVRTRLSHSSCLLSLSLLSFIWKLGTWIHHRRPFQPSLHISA

In the case of `CN/C(=N/CCSCc1nc[nH]c1C)NC#N` [Cimetidine, reference compound], the “Effect on basal activity” value at natural suppressor cells [1] (10^-6 M cimetidine) was “did not lower the basal activity”. The “Antagonism by cimetidine (H2 antagonist) of cAMP accumulation” value at natural suppressor cells [1] (cimetidine 10^-5 M, compounds 6-8 at 10^-4 M, 9 at 10^-7 M) was “competitively blocked the actions of compounds 6-8 (used at 10^-4 M) and 9 (used at 10^-7 M)”. Further, the Ki on natural suppressor cells [1] (lymphoid cells, read-out: Inhibition constant) was in the range of 110 to 430 nM. Also, the “Effect of antagonist on derivative-enhanced suppression in MLR” value with natural suppressor cells [2] (with compound 10, cimetidine 10^-5 M or mepyramine 10^-6 M, four hours at 37° C) is given as “did not alter the derivative-enhanced suppression”.
Regarding `CCCCCC(C)NCCc1c[nH]cn1` (stereo not drawn) [Compound 2], the Relative potency entry on natural suppressor cells [3] is reported as “Inactive”. Also, the “Activity / potency on NS cells (in words)” value (from here on “Activity / potency”) is “impotent as H2 receptor agonists on NS cells” at natural suppressor cells [3] and “inactive; also recorded: nor did they stimulate intracellular accumulation of cAMP” on natural suppressor cells [3] (listed as compound 2). Further, the “Activity on guinea pig myocardium (in words)” value in assay [4] is “completely inactive”. Moreover, the “Blockade of histamine mediated accumulation of cAMP” value (“Blockade … of cAMP” for short) on natural suppressor cells [1] is reported as “failed to block histamine mediated accumulation of cAMP”. In addition, in the assay with natural suppressor cells [2], the “H1 activity in MLR (in words)” value was “no H1 activity”.
On to `CCCCCC(=O)NCCc1c[nH]cn1` [Compound 3, N-Hexamido-4-2'-aminoethyl!imidazole], for which, at natural suppressor cells [3], the Relative potency result is recorded as “Inactive”. Also, the “Activity / potency” value at natural suppressor cells [3] is “impotent as H2 receptor agonists on NS cells”; on natural suppressor cells [3] (listed as compound 3), “inactive; also recorded: Neither an aliphatic amide derivative of histamine (compound 3) nor the dipeptide conjugate of histamine (compound 12) altered intracellular cAMP; also recorded: nor did they stimulate intracellular accumulation of cAMP”. Moreover, the “Activity on guinea pig myocardium (in words)” value in assay [4] is “completely inactive”. On natural suppressor cells [1], the “Blockade … of cAMP” value is listed as “failed to block histamine mediated accumulation of cAMP”. In addition, in the assay on natural suppressor cells [2], the “H1 activity in MLR (in words)” value is given as “no H1 activity”.
For `CC(CCCC(=O)Nc1ccc(C(F)(F)F)cc1)NCCc1c[nH]cn1` (stereo not drawn) [Compound 10], on natural suppressor cells [3], the Relative potency entry is given as “Inactive” and the “Activity / potency” value was “lost all H2 activity”. Besides, the “Activity on guinea pig myocardium (in words)” value in assay [4] is reported as “no effect on the guinea pig myocardium”. Further, the “H1 activity in MLR (in words)” value in the assay with natural suppressor cells [2] is “only H1 agonistic action”. For the same molecule, the “H1 activity in MLR (in words)” value with natural suppressor cells [2] (listed as compound 10) is on record as “appeared to be a specific H1 receptor agonist”.
As to `CC(CCCCC(=O)Nc1ccccc1C(F)(F)F)NCCc1c[nH]cn1` (stereo not drawn) [Compound 11], on natural suppressor cells [3], the Relative potency entry is on record as “Inactive” and the “Activity / potency” value is “impotent as H2 receptor agonists on NS cells”. The “Activity / potency” value on natural suppressor cells [3] (listed as compound 11) was “nullified both detectable H1 and H2 activity”. In addition, the “Blockade … of cAMP” value on natural suppressor cells [1] is listed as “failed to block histamine mediated accumulation of cAMP”. For the same molecule, in the assay with natural suppressor cells [2], the “H1 activity in MLR (in words)” value was “nullified both detectable H1 and H2 activity”.
On to `CCCCNC(=O)CCCCC(C)NCCc1c[nH]cn1` (stereo not drawn) [Compound 13], for which, on natural suppressor cells [3], the Relative potency entry is reported as “Inactive”. In addition, the “Activity / potency” value is “impotent as H2 receptor agonists on NS cells” on natural suppressor cells [3] and “inactive on NS cells; also recorded: nor did they stimulate intracellular accumulation of cAMP” on natural suppressor cells [3] (listed as compound 13). For the same molecule, the “Activity on guinea pig myocardium (in words)” value in assay [4] is listed as “stimulated guinea pig myocardium”. Besides, the “Blockade … of cAMP” value at natural suppressor cells [1] is “failed to block histamine mediated accumulation of cAMP”. For the same molecule, the “H1 activity in MLR (in words)” value in the assay with natural suppressor cells [2] is listed as “no H1 activity”.
For `NCCc1c[nH]cn1` [Histamine, 2-(4'-imidazolinyl)ethylamino], the “Stimulation of adenylate cyclase over base levels” value in assay [4] (histamine 10^-5 M) is “threefold stimulation of adenylate cyclase over base levels”. Also, the “Effect on suppressive ability of NS cells” value with natural suppressor cells [5] is recorded as “augmented the suppressive capacity of NS cells via H1 receptors”.
With `CC(C)NCC(O)COc1cccc2ccccc12` (stereo not drawn) [Propranolol], the “Effect on histamine-induced intracellular accumulation of cAMP” value in the assay with lymphoid cells is “had no effect on histamine-induced intracel accumulation of cAMP”. For the same molecule, the “Blockade of the effects of isoproterenol” value in the assay on lymphoid cells (10^-5 M isoproterenol) is on record as “completely blocked the effects of 10^-5 M isoproterenol”.

These data come from patent USRE35224E (The Board of Trustees of the Leland Stanford Junior …, priority 1993, dated 1996).
